Source: the supplement of paper PMC6965134
± gives the standard deviation of the averaged measurements.

Assay: TIMS collisional cross section (CCS, N2) of the lipid ion; higher = larger ion cross section
Conditions: ionization mode: positive, one isomer drawn

SMILES	TIMS collisional cross section (sample type: plasma)	TIMS collisional cross section (sample type: HeLa)	TIMS collisional cross section (sample type: Liver)
CCCCCCCC/C=C\CCCCCCCC(=O)OC[C@@H](COC(=O)CCCCCCCCCCCCCCCC)OC(=O)CCCCCCC/C=C\CCCCCCCC [TG 17:0_18:1_18:1] (ion (formula + adduct): [C56H104O6+NH4] 1+)	325.5 Å²	–	–
CCCCC/C=C\C/C=C\C/C=C\C/C=C\CCCC(=O)O[C@@H](CO)COC(=O)CCCCCCCCCCCCCCCCC [DG 18:0_20:4_0:0] (ion (formula + adduct): [C41H72O5+NH4] 1+)	–	270.8 Å²	270.8 Å²
CCCCC/C=C\C/C=C\CCCCCCCC(=O)OC[C@@H](COC(=O)CCCCCCCCCCCCCCC)OC(=O)CCCCCCC/C=C\CCCCCC [TG 16:0_16:1_18:2] (ion (formula + adduct): [C53H96O6+NH4] 1+)	313.6 ± 0.44 Å²	314.4 Å²	313.45 ± 0.55 Å²
CCCCCCCC/C=C\CCCCCCCCCCCC(=O)OC[C@@H](COC(=O)CCCCCCCCCCCCCCCCC)OC(=O)CCCCCCC/C=C\CCCCCCCC [TG 18:0_18:1_22:1] (ion (formula + adduct): [C61H114O6+NH4] 1+)	–	339.3 Å²	–
CCCCCCCC/C=C\CCCCCCCC(=O)O[C@H](COC(=O)CCCCCCCCCCCCCCCC)COP(=O)([O-])OCC[N+](C)(C)C [PC 17:0@_18:1] (ion (formula + adduct): [C43H84NO8P+H] 1+)	–	291.8 Å²	–
CCCCCCCCCCCCCCCCC(=O)OC[C@@H](COC(=O)CCCCCCCCCCCCCC)OC(=O)CCCCCCCCCCCCCCC [TG 15:0_16:0_17:0] (ion (formula + adduct): [C51H98O6+NH4] 1+)	314.6 ± 0.22 Å²	314.3 Å²	–
CCCCCCCC/C=C\C/C=C\CCCCC(=O)O[C@H](COC(=O)CCCCCCC/C=C\CCCCCCCC)COP(=O)([O-])OCC[N+](C)(C)C [PC 18:1_18:2] (ion (formula + adduct): [C44H82NO8P+H] 1+)	289.8 Å²	–	–
CCCCCCCC/C=C\CCCCCCCC(=O)O[C@H](COCCCCCCCCCCCCCCCC)COP(=O)([O-])OCC[N+](C)(C)C [PC O- 16:0@_18:1] (ion (formula + adduct): [C42H84NO7P+H] 1+)	–	290.7 Å²	–
CCCC/C=C\CCCCCCCC(=O)OC[C@H](COC(=O)CCCCCCC/C=C\C/C=C\CCCCC)OC(=O)CCCCCCC/C=C\CCCCCC [TG 14:1_16:1_18:2] (ion (formula + adduct): [C51H90O6+NH4] 1+)	304.5 Å²	306.1 Å²	304.7 Å²
CCCC/C=C\CCCCCCCC(=O)O[C@@H](COC(=O)CCCCCCC/C=C\CCCCCC)COC(=O)CCCCCCCCCCCCC [TG 14:0_14:1_16:1] (ion (formula + adduct): [C47H86O6+NH4] 1+)	–	297.4 Å²	–
CCCCC/C=C\C/C=C\C/C=C\CCCCCCC(=O)O[C@@H](CO)COC(=O)CCCCCCC/C=C\CCCCCCCC [DG 18:1_20:3_0:0] (ion (formula + adduct): [C41H72O5+NH4] 1+)	–	266.8 Å²	267 Å²
CCCCCC/C=C\CCCCCCCC(=O)O[C@@H](COC(=O)CCCCCCC/C=C\CCCCCCC)COC(=O)CCCCCCCCCCCCCCC [TG 16:0_16:1_17:1] (ion (formula + adduct): [C52H96O6+NH4] 1+)	313.2 Å²	–	–
CCCCCCCCCCCCCCCCCC(=O)OC[C@H](CO)OC(=O)CCCCCCCCCCCCCCC [DG 18:0_16:0_0:0] (ion (formula + adduct): [C37H72O5+NH4] 1+)	265.6 Å²	–	265.6 Å²
CCCCC/C=C\C/C=C\CCCCCCCC(=O)O[C@H](COC(=O)CCCCCCCCCCCCCCCCC)COP(=O)(O)OCCN [PE 18:0_18:2] (ion (formula + adduct): [C41H78NO8P+H] 1+)	279.8 Å²	–	279.7 Å²
CC/C=C\C/C=C\C/C=C\C/C=C\C/C=C\C/C=C\CCC(=O)O[C@@H](CO)COC(=O)CCCCCCCCCCCCCCC [DG 16:0_22:6_0:0] (ion (formula + adduct): [C41H68O5+NH4] 1+)	–	–	267.7 Å²
CCCCCCCCCCCCC/C=C/[C@@H](O)[C@H](CO[C@@H]1OC(CO)[C@@H](O[C@@H]2OC(CO)[C@H](O)[C@H](O)C2O)[C@H](O)C1O)NC(=O)CCCCCCCCCCCCCCC (some centres undefined) [GlcCer d18:1_16:0@] (ion (formula + adduct): [C46H87NO13+H] 1+)	304.2 Å²	–	–
CCCC/C=C\CCCCCCCC(=O)OC[C@H](COC(=O)CCCCCCC/C=C\C/C=C\CCCCC)OC(=O)CCCCCCC/C=C\CCCC [TG 14:1_14:1_18:2] (ion (formula + adduct): [C49H86O6+NH4] 1+)	–	–	296.3 Å²

SMILES	TIMS collisional cross section (sample type: plasma)	TIMS collisional cross section (sample type: HeLa)	TIMS collisional cross section (sample type: Liver)
CC/C=C\C/C=C\C/C=C\CCCCCCCC(=O)O[C@@H](CO)COC(=O)CCCCCCC/C=C\CCCCCCCC [DG 18:1_18:3_0:0] (ion (formula + adduct): [C39H68O5+NH4] 1+)	258.8 Å²	258.6 Å²	–
CCCCCCCC/C=C\CCCCCCCC(=O)O[C@H](COC(=O)CCCCCCCCCCCCCCCCC)COP(=O)(O)OCCN [PE 18:0_18:1] (ion (formula + adduct): [C41H80NO8P+H] 1+)	–	282.2 Å²	–
CCCCCC/C=C\CCCCCCCC(=O)OC[C@@H](COC(=O)CCCCCCCCCCCCC)OC(=O)CCCCCCCCCCCCC [TG 14:0_14:0_16:1] (ion (formula + adduct): [C47H88O6+NH4] 1+)	–	299.3 Å²	299.1 Å²
CC/C=C\C/C=C\C/C=C\C/C=C\C/C=C\CCCCCC(=O)OC[C@@H](COC(=O)CCCCCCCCCCCCCCC)OC(=O)CCCCCCCCCCCCCCCCC [TG 16:0_18:0_22:5] (ion (formula + adduct): [C59H104O6+NH4] 1+)	–	330.6 Å²	–
CCCCCCCC/C=C\CCCCCCCC(=O)OC[C@@H](COC(=O)CCCCCCCCCCCCCCC)OC(=O)CCCCCCCCCCCCCCCCC [TG 16:0_18:0_18:1] (ion (formula + adduct): [C55H104O6+NH4] 1+)	324.45 ± 0.35 Å²	324.4 Å²	324.5 ± 0.14 Å²
CCCCC/C=C\C/C=C\CCCCCCCC(=O)OC[C@H](COP(=O)(O)OCCN)OC(=O)CCCCCCC/C=C\CCCCCC [PE 18:2_16:1] (ion (formula + adduct): [C39H72NO8P+H] 1+)	–	–	268.7 Å²
CC/C=C\C/C=C\C/C=C\C/C=C\C/C=C\CCCC(=O)O[C@@H](CO)COC(=O)CCCCCCC/C=C\CCCCCCCC [DG 18:1_20:5_0:0] (ion (formula + adduct): [C41H68O5+NH4] 1+)	–	263.8 Å²	–
CCCCC/C=C\C/C=C\C/C=C\CCCCCCC(=O)O[C@H](CO/C=C\CCCCCCCCCCCCCCCC)COP(=O)([O-])OCC[N+](C)(C)C [PC P- 18:0@_20:3] (ion (formula + adduct): [C46H86NO7P+H] 1+)	296.1 Å²	–	–
CC/C=C\C/C=C\C/C=C\C/C=C\C/C=C\C/C=C\CCC(=O)OC[C@@H](COC(=O)CCCCCCCCCCCCCCCCC)OC(=O)CCCCCCC/C=C\CCCCCCCC [TG 18:0_18:1_22:6] (ion (formula + adduct): [C61H104O6+NH4] 1+)	–	333.1 Å²	333.4 Å²
CCCCCCCC/C=C\C/C=C\C/C=C\CCCC(=O)O[C@H](COC(=O)CCCCCCCCCCCCCCC)COP(=O)([O-])OCC[N+](C)(C)C [PC 16:0_20:3] (ion (formula + adduct): [C44H82NO8P+H] 1+)	290.5 Å²	–	–
CCCCC/C=C\C/C=C\C/C=C\CCCCC(=O)OC[C@@H](COC(=O)CCCCCCCCCCCCC)OC(=O)CCCCCCC/C=C\C/C=C\CCCCC [TG 14:0_18:2_18:3] (ion (formula + adduct): [C53H92O6+NH4] 1+)	309.2 Å²	–	308.7 Å²
CCCCCCC/C=C\CCCCCCCC(=O)OC[C@@H](COC(=O)CCCCCCCCCCCCCCC)OC(=O)CCCCCCCCCCCCCCCC [TG 16:0_17:0_17:1] (ion (formula + adduct): [C53H100O6+NH4] 1+)	–	–	317.9 Å²
CCCCCCCCCCCCCCCCCCCC(=O)OC[C@@H](O)COP(=O)(O)OCCN [LPE 20:0] (ion (formula + adduct): [C25H52NO7P+H] 1+)	–	229.2 Å²	–
CCCCCCCCCCCCCCCC(=O)OC[C@@H](O)COP(=O)(O)OCCN [LPE 16:0_0:0] (ion (formula + adduct): [C21H44NO7P+H] 1+)	–	217.4 Å²	–
CCCC/C=C\C/C=C\CCCCCCCC(=O)OC[C@H](COC(=O)CCC/C=C\C/C=C\C/C=C\C/C=C\CCCCC)OC(=O)CCCCCCC/C=C\C/C=C\CCCCC [TG 17:2_18:2_20:4] (ion (formula + adduct): [C58H96O6+NH4] 1+)	–	–	322.2 Å²
CCC/C=C\CCCCCCCC/C=C/[C@@H](O)[C@H](COP(=O)([O-])OCC[N+](C)(C)C)NC(=O)CCCCCCCCCCCCCCC [SM d18:2_16:0@] (ion (formula + adduct): [C39H77N2O6P+H] 1+)	281.3 Å²	281.4 Å²	–
